Data published in patent publication US9828622B2, “Photoactivatable antimicrobial agents and therapeutic and diagnostic methods of using same” (The General Hospital Corporation, priority 2008, dated 2017).
“Also recorded” adds a separate entry of the source. Where two headings read alike, the source gives them in different places.

Experiments:
[1] = Photosensitizing efficacy
From the text: The terminal carboxyl group with the flexible alkyl chain provides an ideal site for conjugation. 7-amino-3-chloromethyl-3-cephem-4-carboxylic acid p-methoxybenzyl ester (ACLE, commercial available) is used as cephalosporin scaffold. ACLE is a common starting material to synthesize cephalosporin derivatives. It integrates an amino group at 7-position. By replacing chlorine at 3′-position with 4-amino-thiophenol provides an additional amino group therefore each ACLE molecule can accommodate two EtNBS-COOH molecules to form a static quenching pair.

[2] = target: purified B. cereus beta-lactamase; test: Competitive substrate inhibition of β-LEAP hydrolysis, purified enzyme; format: biochemical, Bacillus cereus; conditions: competitive beta-lactam substrate; 384 multi-well plate
Method: (§1) (a.) inhibition constants of a panel of β-lactams for the competitive substrate inhibition of β-LEAP hydrolysis by B. cereus β-lactamase, (b.) inhibition constants for β-LEAP hydrolysis by bacterial suspensions, (c.) inhibition profiles of panel of β-lactams for B. cereus, (d.) MICs of panel of β-lactams for B. cereus. […] Statistical significance was determined via Tukey multiple comparison test using Graphpad Prism 5. Horizontal bars connected by solid intersections indicate significant difference.
(§2) This Example describes a new methodology for use in characterizing beta-lactamases by using a competitive substrate inhibition assay. It is believed that no competitive substrate inhibition assays for determining beta-lactamase functionality are currently in use by clinical microbiology laboratories. This new approach is based on exploiting the sensitivity and mechanism of the β-LEAP compound of the invention. More in particular, this approach is based on measuring the level of induced-fluorescence caused by the cleavage/hydrolysis and consequent activation of the β-LEAP compound by beta-lactamase enzymes under evaluation while also in the presence of, or “in competition” with, different types and amounts of beta-lactamase enzyme substrates. The degree of inhibition of β-LEAP hydrolysis/fluorescence due to competition with the beta-lactam competitor substrates is determined, which provides the basis for determining beta-lactamase functionality.
(§3) This approach involved combining in a 384 multi-well assay plate format purified B. cereus beta-lactamase or bacterial suspensions with the β-LEAP of the invention and a competitive beta-lactam substrate, including amoxicillin, clavulanic acid, ampicillin, penicillin G, carbenicillin, cefazolin, cefatoxime or ceftazidime.

[3] = target: Bacillus cereus 5/β bacterial suspensions; test: Competitive substrate inhibition of β-LEAP hydrolysis, bacterial suspensions; format: cell-based; conditions: competitive beta-lactam substrate; whole bacteria suspensions
Method: as §1, §2, §3

[4] = tested on: B. cereus; test: Growth inhibition / MIC assay; format: cell-based, Bacillus cereus
Method: as §1, §3

| Compound | inhibition of β-LEAP hydrolysis/fluorescence (inhibition constants, Ki, FIG. 13a) [2] | inhibition of β-LEAP hydrolysis/fluorescence (inhibition constants, Ki, FIG. 13b) [3] | in vitro growth inhibition (MIC assay) [4] | other results |
| --- | --- | --- | --- | --- |
| CCN(CC)c1ccc2nc3c(cc(NCCCCC(=O)O)c4ccccc43)[s+]c2c1 [EtNBS-COOH, 5-(4′-carboxybutylamino)-9-diethylaminobenzo[a]phenothiazine] |  |  |  | photosensitizing efficacy [1]: excellent photosensitizing efficacy |
| CC(C)(O/N=C(\C(=O)N[C@@H]1C(=O)N2C(C(=O)[O-])=C(C[n+]3ccccc3)CS[C@H]12)c1csc(N)n1)C(=O)O [ceftazidime] | more effective inhibitors | more effective inhibitors |  |  |
| CO/N=C(\C(=O)N[C@@H]1C(=O)N2C(C(=O)O)=C(COC(C)=O)CS[C@H]12)c1csc(N)n1 [cefatoxime] | more effective inhibitors | more effective inhibitors |  |  |
| cephalothin | more effective inhibitors | more effective inhibitors |  |  |
| CC1(C)S[C@@H]2[C@H](NC(=O)[C@H](N)c3ccc(O)cc3)C(=O)N2[C@H]1C(=O)O [amoxicillin] | detected |  | no inhibition | in vitro growth inhibition (MIC assay) ([4]; listed as Amoxicillin): did not inhibit the growth |
| CC1(C)S[C@@H]2[C@H](NC(=O)[C@H](N)c3ccccc3)C(=O)N2[C@H]1C(=O)O [ampicillin] | detected |  | did not inhibit the growth | in vitro growth inhibition (MIC assay) ([4]; listed as ampillin): no inhibition |
| O=C(O)[C@H]1/C(=C/CO)O[C@@H]2CC(=O)N21 [clavulanic acid] |  |  | no inhibition; also recorded: did not inhibit the growth |  |
